A word on the EC50: it is the concentration that produces a half-maximal response.

The values below come from US9751869B2, “LXR modulators” (BRISTOL-MYERS SQUIBB COMPANY, priority 2013, dated 2017).

The assay has as its target T1, LXRβ (Homo sapiens, UniProt P55055).
T1 construct: Co-transfection expression plasmids, comprising full-length LXRα (pCMX-h LXRα or LXRβ (pCMX-hLXRβ)); expressed in transfected cells; host or cells: CV-1 African green monkey kidney cells, transient transfection with pCMX-hLXRβ
T1 sequence (P55055 1-460): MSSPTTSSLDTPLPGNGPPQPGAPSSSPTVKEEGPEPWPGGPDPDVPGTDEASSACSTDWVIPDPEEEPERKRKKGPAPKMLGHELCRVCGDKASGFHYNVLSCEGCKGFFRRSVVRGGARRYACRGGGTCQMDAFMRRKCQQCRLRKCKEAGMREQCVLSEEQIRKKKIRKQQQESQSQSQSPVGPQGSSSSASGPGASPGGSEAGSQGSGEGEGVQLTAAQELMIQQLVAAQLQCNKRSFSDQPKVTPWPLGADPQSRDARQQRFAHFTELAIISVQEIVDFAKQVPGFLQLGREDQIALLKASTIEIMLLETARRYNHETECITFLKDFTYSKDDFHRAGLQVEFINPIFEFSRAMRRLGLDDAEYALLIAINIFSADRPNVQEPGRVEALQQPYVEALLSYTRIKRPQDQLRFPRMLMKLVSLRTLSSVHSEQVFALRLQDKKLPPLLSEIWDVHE
T1 sequence (P19793 1-462 partner): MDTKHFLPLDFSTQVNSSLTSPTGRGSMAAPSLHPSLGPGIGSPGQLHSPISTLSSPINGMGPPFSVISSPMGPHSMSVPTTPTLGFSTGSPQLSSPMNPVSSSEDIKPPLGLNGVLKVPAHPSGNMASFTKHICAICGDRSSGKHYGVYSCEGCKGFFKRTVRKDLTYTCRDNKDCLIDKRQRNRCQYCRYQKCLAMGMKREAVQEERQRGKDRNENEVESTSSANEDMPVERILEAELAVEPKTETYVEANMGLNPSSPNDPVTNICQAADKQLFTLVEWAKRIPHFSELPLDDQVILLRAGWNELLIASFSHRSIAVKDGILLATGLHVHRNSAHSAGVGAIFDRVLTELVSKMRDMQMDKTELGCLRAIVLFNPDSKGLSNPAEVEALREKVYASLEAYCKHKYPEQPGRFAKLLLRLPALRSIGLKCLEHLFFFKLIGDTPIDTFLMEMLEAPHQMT
Put plainly: LXR/LXRE co-transfection assay (luciferase reporter) in CV-1 cells, LXRβ. Conditions: for EC50: CV-1 cells transfected with pCMX-hLXRβ and LXREx1-Tk-Luciferase, 20 hours incubation, read-out: LXRbeta agonism EC50; for Emax: read-out: LXRbeta % EFFICACY
Type of assay: cell-based. Summed up:
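CV-1 cells transiently co-transfected with full-length human LXRβ, LXRE-Tk-luciferase reporter and β-galactosidase control, then exposed to compound (≤0.5% DMSO) for 20 h at 37 °C before luminescence read. EC50 from 10-point, half-log dose curves; efficacy relative to the sulfonamide high control, means of 2–3 experiments.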
On the technique in general: Reporter assays use an easily measured gene product as a stand-in for the process of interest.

The mark [1] stands for this setting: CV-1 cells, relative to maximum response of high control N-(3-((4-fluorophenyl)-(naphthalene-2-sulfonyl)amino)propyl)-2,2-dimethylpropionamide.

For the compound `Cc1nc(-c2cc(-c3cc(F)c(CO)c(S(C)(=O)=O)c3)ccc2-n2nc(C(F)(F)F)cc2C)c(-c2ccc(OC(F)F)cc2)o1` [Example 384, (3′-(5-(4-(difluoromethoxy)phenyl)-2-methyloxazol-4-yl)-3-fluoro-4′-(5-methyl-3-(trifluoromethyl)-1H-pyrazol-1-yl)-5-(methylsulfonyl)biphenyl-4-yl)methanol], the EC50 is 15 nM. Under setting [1], the Emax came out at 73%.

Consider `Cn1nc(C(=O)NC(C)(C)C#N)cc1-c1ccc(-c2cccc(S(C)(=O)=O)c2)cc1-n1nncc1-c1ccc(OC(F)(F)F)cc1` [Example 37, N-(1-cyano-1-methylethyl)-1-methyl-5-[3′-(methylsulfonyl)-3-(5-{4-[(trifluoromethyl)oxy]phenyl}-1H-1,2,3-triazol-1-yl)biphenyl-4-yl]-1H-pyrazole-3-carboxamide], for which the 50% effective concentration (EC50) turned out to be 1560 nM. Moreover, the Emax under setting [1] turned out to be 47%.

Consider `Cc1nc(-c2ccc(Cl)cc2)c(-c2cc(-c3cccc(S(C)(=O)=O)c3)ccc2-n2ccc(C(F)(F)F)n2)o1` [Example 344, 4-(4-chlorophenyl)-2-methyl-5-(3′-(methylsulfonyl)-4-(3-(trifluoromethyl)-1H-pyrazol-1-yl)biphenyl-3-yl)oxazole], for which the EC50 worked out at 116 nM. For the same compound, under setting [1], the Emax is 72%.

With `Cc1nc(-c2ccc3c(c2)OC(F)(F)O3)c(-c2cc(-c3cccc(S(C)(=O)=O)c3)ccc2-c2cc(C3(C#N)CC3)nn2C)o1` [Example 118, 1-(5-(3-(4-(2,2-difluorobenzo[d][1,3]dioxol-5-yl)-2-methyloxazol-5-yl)-3′-(methylsulfonyl)-[1,1′-biphenyl]-4-yl)-1-methyl-1H-pyrazol-3-yl) cyclopropanecarbonitrile], the 50% effective concentration (EC50) turned out to be 7 nM. For the same compound, the Emax under setting [1] is 86%.

For `Cc1nc(-c2ccc(OC(F)(F)F)cc2)c(-c2cc(-c3cccc(S(C)(=O)=O)c3)ccc2-n2ccc(CC#N)n2)o1` [Example 369, 2-(1-(3-(2-methyl-4-(4-(trifluoromethoxy)phenyl)oxazol-5-yl)-3′-(methylsulfonyl)-[1,1′-biphenyl]-4-yl)-1H-pyrazol-3-yl)acetonitrile], the concentration for a half-maximal effect (EC50) is 226 nM. Also, the Emax under setting [1] was determined as 99%.

As to `Cc1nc(-c2ccc(OC(F)(F)F)cc2)c(-c2cc(-c3cccc(S(C)(=O)=O)c3)ccc2-n2nc(C(F)(F)F)cc2Cl)o1` [Example 345, 5-(4-(5-chloro-3-(trifluoromethyl)-1H-pyrazol-1-yl)-3′-(methylsulfonyl)biphenyl-3-yl)-2-methyl-4-(4-(trifluoromethoxy)phenyl)oxazole], the EC50 was found to be 73 nM. Under setting [1], the Emax was 75%.

In the case of `CNC(=O)C(F)(F)c1cc(-c2ccc(-c3cc(F)c(CO)c(S(C)(=O)=O)c3)cc2-c2oc(C)nc2-c2ccc3c(c2)OC(F)(F)O3)n(C)n1` [Example 50, 2-(5-(3-(4-(2,2-difluorobenzo[d][1,3]dioxol-5-yl)-2-methyloxazol-5-yl)-3′-fluoro-4′-(hydroxymethyl)-5′-(methylsulfonyl)biphenyl-4-yl)-1-methyl-1H-pyrazol-3-yl)-2,2-difluoro-N-methylacetamide], the 50% effective concentration (EC50) was 122 nM. Also, the Emax under setting [1] amounted to 61%.

With `Cc1nc(-c2ccc(OC(F)F)nc2)c(-c2cc(-c3cc(F)c(CO)c(S(C)(=O)=O)c3)ccc2-n2cc(Cl)c(C(F)(F)F)n2)o1` [Example 426, (4′-(4-chloro-3-(trifluoromethyl)-1H-pyrazol-1-yl)-3′-(4-(6-(difluoromethoxy)pyridin-3-yl)-2-methyloxazol-5-yl)-3-fluoro-5-(methylsulfonyl)-[1,1′-biphenyl]-4-yl) methanol], the EC50 stood at 8 nM. Further, the Emax under setting [1] was 72%.

`Cc1nc(-c2cc(-c3cccc(C(C)(C)C(N)=O)c3)ccc2-n2nc(C(F)(F)F)cc2Cl)c(-c2ccc(OC(F)(F)F)cc2)o1` [Example 404, 2-(4′-(5-chloro-3-(trifluoromethyl)-1H-pyrazol-1-yl)-3′-(2-methyl-5-(4-(trifluoromethoxy)phenyl)oxazol-4-yl)biphenyl-3-yl)-2-methylpropanamide]: the concentration giving a half-maximal response (EC50) stood at 185 nM. In addition, the Emax under setting [1] came to 67%.

For the compound `Cc1nc(-c2ccc(OC(F)(F)F)cc2)c(-c2cc(-c3cc(F)c(CO)c(S(C)(=O)=O)c3)ccc2-n2ccc(C3CC3)n2)o1` [Example 315, (4′-(3-cyclopropyl-1H-pyrazol-1-yl)-3-fluoro-3′-(2-methyl-4-(4-(trifluoromethoxy)phenyl)oxazol-5-yl)-5-(methylsulfonyl)-[1,1′-biphenyl]-4-yl)methanol], the EC50 was found to be 70 nM. Besides, under setting [1], the Emax stood at 48%.

Consider `Cc1nc(-c2ccc3c(c2)OC(F)(F)O3)c(-c2cc(-c3cccc(S(C)(=O)=O)c3)ccc2-c2cc(C(C)O)nn2C)o1` (stereo not drawn) [Example 102], for which the EC50 turned out to be 227 nM. Under setting [1], the “LXRbeta % EFFICACY” value is reported as 96%.

Regarding `Cn1nc(C(F)(F)C(N)=O)cc1-c1ccc(-c2cc(F)c(CO)c(S(C)(=O)=O)c2)cc1-c1oc(C2CC2)nc1-c1ccc2c(c1)OC(F)(F)O2` [Example 46, 2-(5-(3-(2-cyclopropyl-4-(2,2-difluorobenzo[d][1,3]dioxol-5-yl)oxazol-5-yl)-3′-fluoro-4′-(hydroxymethyl)-5′-(methylsulfonyl)biphenyl-4-yl)-1-methyl-1H-pyrazol-3-yl)-2,2-difluoroacetamide], the 50% effective concentration (EC50) was determined as 25 nM. Under setting [1], the Emax is 45%.

In the case of `CCOc1cc(C(F)(F)F)nn1-c1ccc(-c2cc(F)c(CO)c(S(C)(=O)=O)c2)cc1-c1nc(C)oc1-c1ccc(OC(F)(F)F)cc1` [Example 382, (4′-(5-ethoxy-3-(trifluoromethyl)-1H-pyrazol-1-yl)-3-fluoro-3′-(2-methyl-5-(4-(trifluoromethoxy)phenyl)oxazol-4-yl)-5-(methylsulfonyl)biphenyl-4-yl)methanol], the 50% effective concentration (EC50) worked out at 629 nM. In addition, the Emax under setting [1] was 50%.

As to `Cc1nc(-c2cc(-c3cc(F)c(CO)c(S(C)(=O)=O)c3)ccc2-n2nc(C(F)(F)F)cc2C2CC2)c(-c2ccc(OC(F)(F)F)cc2)o1` [Example 415, (4′-(5-cyclopropyl-3-(trifluoromethyl)-1H-pyrazol-1-yl)-3-fluoro-3′-(2-methyl-5-(4-(trifluoromethoxy)phenyl)oxazol-4-yl)-5-(methylsulfonyl)biphenyl-4-yl)methanol], the EC50 was 458 nM. Besides, the Emax under setting [1] was 37%.

As to `Cc1nc(-c2ccc3c(c2)OC(F)(F)O3)c(-c2cc(-c3cc(F)c(CO)c(S(C)(=O)=O)c3)ccc2-c2cc(C(F)(F)C(=O)N(C)C)nn2C)o1` [Example 80, 2-(5-(3-(4-(2,2-difluorobenzo[d][1,3]dioxol-5-yl)-2-methyloxazol-5-yl)-3′-fluoro-4′-(hydroxymethyl)-5′-(methylsulfonyl)biphenyl-4-yl)-1-methyl-1H-pyrazol-3-yl)-2,2-difluoro-N,N-dimethylacetamide], the EC50 was 131 nM. Moreover, under setting [1], the Emax was 58%.

Turning to `Cc1nc(-c2ccc(OC(F)(F)F)cc2)c(-c2cc(-c3cc(F)c(CO)c(S(C)(=O)=O)c3)ccc2-n2ccc(C(F)(F)F)n2)o1` [Example 335, (3-fluoro-3′-(2-methyl-4-(4-(trifluoromethoxy)phenyl)oxazol-5-yl)-5-(methylsulfonyl)-4′-(3-(trifluoromethyl)-1H-pyrazol-1-yl)biphenyl-4-yl)methanol], the EC50 worked out at 29 nM. Also, the Emax under setting [1] came to 71%.

For `Cc1nc(-c2ccc3c(c2)OC(F)(F)O3)c(-c2cc(-c3cc(F)c(CO)c(S(C)(=O)=O)c3)ccc2-c2cc(C(F)(F)C#N)nn2C)o1` [Example 47, 2-(5-(3-(4-(2,2-difluorobenzo[d][1,3]dioxol-5-yl)-2-methyloxazol-5-yl)-3′-fluoro-4′-(hydroxymethyl)-5′-(methylsulfonyl)biphenyl-4-yl)-1-methyl-1H-pyrazol-3-yl)-2,2-difluoroacetonitrile], the 50% effective concentration (EC50) turned out to be 663 nM. The Emax under setting [1] was 72%.

In the case of `Cc1nc(-c2ccc3c(c2)OC(F)(F)O3)c(-c2cc(-c3cccc(S(C)(=O)=O)c3)ccc2-c2cc(C#N)nn2C)o1` [Example 123, 5-(3-(4-(2,2-difluorobenzo[d][1,3]dioxol-5-yl)-2-methyloxazol-5-yl)-3′-(methylsulfonyl)-[1,1′-biphenyl]-4-yl)-1-methyl-1H-pyrazole-3-carbonitrile], the EC50 is 94 nM. In addition, the Emax under setting [1] amounted to 35%.
